ChEMBL document CHEMBL1158221, “Nigranoic acid, a triterpenoid from Schisandra sphaerandra that inhibits HIV-1 reverse transcriptase” (J Nat Prod, 1996)

Experiments:
[1] = Inhibition of DNA polymerase alpha at 200 ug/ml
[2] = Inhibition of RNaseH
[3] = tested on: Human immunodeficiency virus 1; assay: Inhibition of HIV1 reverse transcriptase mutant at 200 ug/ml
[4] = tested on: Human immunodeficiency virus 2; assay: Inhibition of HIV2 reverse transcriptase at 200 ug/ml
[5] = Inhibition of HIV2 reverse transcriptase; set-up: species or system Human immunodeficiency virus 2
[6] = tested on: Avian myeloblastosis virus; assay: Inhibition of AMV reverse transcriptase at 200 ug/ml
[7] = Inhibition of DNA dependent DNA polymerase at 200 ug/ml
[8] = Inhibition of AMV reverse transcriptase; set-up: species or system Avian myeloblastosis virus
[9] = Inhibition of DNA polymerase beta at 200 ug/ml
[10] = target: Human immunodeficiency virus type 1 reverse transcriptase (Human immunodeficiency virus 1, UniProt Q72547); assay: Inhibition of HIV1 reverse transcriptase
[11] = Inhibition of RNA polymerase
[12] = Inhibition of RNaseH at 200 ug/ml
[13] = Inhibition of HIV1 reverse transcriptase mutant; set-up: species or system Human immunodeficiency virus 1
[14] = Inhibition of DNA polymerase beta
[15] = Inhibition of DNA polymerase alpha
[16] = Inhibition of RNA polymerase at 200 ug/ml
[17] = Inhibition of DNA dependent DNA polymerase
[18] = target: Human immunodeficiency virus type 1 reverse transcriptase (Human immunodeficiency virus 1) (UniProt Q72547); assay: Inhibition of HIV1 reverse transcriptase at 200 ug/ml

Work on `C=C(C)[C@@H]1CC[C@@H]2[C@]3(CC[C@]4(C)[C@@H]([C@H](C)CC/C=C(/C)C(=O)O)CC[C@@]24C)C[C@]13CCC(=O)O` [NIGRANOIC ACID] yielded an inhibition [1] of 46.2%, an IC50 [2] of over 425 µM and an inhibition [3] of 71%. It also gave an inhibition [4] of 76.7%, an IC50 [5] of 356 µM and an inhibition [6] of 99.2%. For the same molecule, the inhibition [7] was 96.7%, the IC50 [8] was 242 µM and the inhibition [9] was 99.1%. For the same molecule, the IC50 [10] was 159 µM, the IC50 [11] was 188 µM and the inhibition [12] was 6.8%. It also gave an IC50 [13] of 388 µM, an IC50 [14] of 16.6 µM and an IC50 [15] of over 425 µM. For the same molecule, the inhibition [16] was 75.4%, the IC50 [17] was 40.6 µM and the inhibition [18] was 99.4%.
